# According to US10112913B2, “Substituted [1,2,4]triazole and imidazole compounds as fungicides” (BASF SE, priority 2014, dated 2018):
# Test system: Fusarium culmorum
# Experiment: Activity against root rot caused by Fusarium culmorum (Fusacu), microtiter test
# Format: cell-based
# Conditions: 31 ppm; Fusarium culmorum spore suspension; 18° C.; 405 nm, 7 days after inoculation
structure (smiles),measurement,value
CC(C)CC#Cc1ccc(C(O)(Cn2cncn2)C(C)(C)C)cc1 (stereo not shown) [I.C-2],growth (relative growth of the pathogen vs active compound-free control = 100%),0%
